From the NIST ThermoML archive (doi:10.1016/j.jct.2005.05.012)

Assays:
[1] = refractive index (other wavelength) (dimensionless); conditions: 101 kPa, Liquid, Wavelength=632.8 nm, Newport model 1825-C
[2] = refractive index (other wavelength) (dimensionless); xn = mol fraction of the nth substance listed; conditions: 305.5 K, 101 kPa, Liquid, Wavelength=632.8 nm, Newport model 1825-C

CCCCCCCCCCCCCCCCCC [octadecane]
[1]
Conditions | refractive index
301.97 K | 1.4339
303.42 K | 1.4333
304.68 K | 1.4328
306.38 K | 1.4321
307.84 K | 1.4315
309.28 K | 1.4307

CCCCCCCCCCCCCCCCCC [octadecane] + N#Cc1ccccc1
[2]
Conditions | refractive index
x2 = 0.0996 | 1.4316
x2 = 0.1986 | 1.4362
x2 = 0.2992 | 1.4398
x2 = 0.4025 | 1.4447
x2 = 0.4955 | 1.4499
x2 = 0.5947 | 1.4567
x2 = 0.7985 | 1.4777
x2 = 0.8876 | 1.4917

N#Cc1ccccc1 [benzonitrile]
[1]
Conditions | refractive index
301.4 K | 1.521
302.96 K | 1.5202
304.8 K | 1.5194
306.42 K | 1.5186
307.83 K | 1.5179
309.65 K | 1.517
